In patent publication US20250296971A1, “GASTRIC INHIBITORY PEPTIDE RECEPTOR LIGANDS” (priority 2021, published 2025):
*1 amine or outer side, *2 acyl side, *3 side chain or, on linkers, in order; H or OH if unused. Where a SMILES comes first, the peptide text is derived from it. Bridges are numbered along the chain shown (N, C = ends). [ ]: non-standard residue; d: D form. The star is where a group is joined. NH(1-deoxy-D-glucityl) = OC[C@@H](O)[C@@H](O)[C@H](O)[C@@H](O)CN*; DOTA = O=C(O)CN1CCN(CC(=O)O)CCN(CC(=O)*)CCN(CC(=O)O)CC1; Trp(5-Cl) = N[C@@H](Cc1c[nH]c2ccc(Cl)cc12)C(=O)O; Pyridine(2,6-diCH2) = c1cc(C[*:1])nc(C[*:2])c1; X10 = O=C(CN(CC(=O)NC(CO)CO)CC(=O)*)NC(CO)CO; Pro(4R-NH2) = N[C@H]1CN[C@H](C(=O)O)C1; Glutaryl = O=C(CCCC(=O)[*:2])[*:1]; Hyp = O=C(O)[C@@H]1C[C@@H](O)CN1; X1 = O=C(CN1CCC(N[*:1])CC1)[*:2]; NHCH(CH2OH)2 = OCC(CO)N*; dDap = NC[C@@H](N)C(=O)O; Api = NC1(C(=O)O)CCNCC1; Thp = NC1(C(=O)O)CCOCC1

How the values were obtained:
[1] = molecular target: T1, GIPR (CHO-K1-hGIPR cells) (Homo sapiens, UniProt P48546); assay: FACS binding assay; conditions: competition with 20 nM GIP-057, 4° C. for 1 hour, read-out: pIC50 Category (converted)
T1 construct: host or cells: CHO-K1
T1 sequence (P48546 22-466): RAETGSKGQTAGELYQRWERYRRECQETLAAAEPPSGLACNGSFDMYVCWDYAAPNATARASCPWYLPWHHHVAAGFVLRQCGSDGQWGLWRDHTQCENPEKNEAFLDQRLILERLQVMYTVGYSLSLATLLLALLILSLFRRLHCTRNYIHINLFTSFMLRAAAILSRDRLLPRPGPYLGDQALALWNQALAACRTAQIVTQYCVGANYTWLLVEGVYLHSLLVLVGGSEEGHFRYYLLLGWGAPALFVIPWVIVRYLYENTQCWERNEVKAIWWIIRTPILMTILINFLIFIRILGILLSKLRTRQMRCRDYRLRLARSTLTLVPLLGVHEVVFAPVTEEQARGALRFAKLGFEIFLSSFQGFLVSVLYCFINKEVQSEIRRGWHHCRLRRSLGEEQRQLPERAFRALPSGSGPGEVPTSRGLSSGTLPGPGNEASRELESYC
Outline: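 CHO-K1 cells expressing human GIPR, washed in PBS/1% FCS, then stained with 1 μg/mL APC-streptavidin for 30 min on ice.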

[2] = molecular target: T2, human GIP receptor (bioGIPR) (Homo sapiens, UniProt P48546); assay: Surface plasmon resonance (SPR) based binding assay; conditions: Single Cycle Kinetic mode, 25° C.; for t1/2 Category: SPR dissociation half-life; for Kd: SPR, 1:1 Langmuir binding model, read-out: pKD Category (converted)
T2 construct: Biotinylate extracellular of the human GIP receptor (bioGIPR, Proteros biostructures GmbH, lot #02/2b); purchased Proteros biostructures GmbH lot #02/2b
T2 sequence (P48546 22-138 limits assumed): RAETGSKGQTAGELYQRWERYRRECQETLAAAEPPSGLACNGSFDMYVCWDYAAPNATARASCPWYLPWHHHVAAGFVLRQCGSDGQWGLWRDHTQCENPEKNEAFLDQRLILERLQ
Outline: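 Binding was measured at 25 °C by single-cycle kinetics against a reference flow cell, with blank-run and drift correction, after capturing biotinylated GIPR extracellular domain to ~3500 RU. Running buffer: HBST, 0.1% DMSO. A 1:1 Langmuir model gave kinetic rates, KD, t1/2 and pKD.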

| Structure (SMILES) | IC50 [1] [nM] | t1/2 Category [2] | Kd [2] [nM] |
| --- | --- | --- | --- |
| CC[C@H](C)[C@@H]1NC(=O)[C@H](CC(C)C)NC(=O)C2(CCN(C(=O)CN3CCN(CC(=O)O)CCN(CC(=O)O)CCN(CC(=O)O)CC3)CC2)NC(=O)[C@@H](NC(=O)[C@@H](CC(C)C)NC(=O)[C@H](CCC(=O)O)NC(=O)[C@@H]2C[C@@H](N)CN2C(=O)[C@H](Cc2c[nH]c3ccc(Cl)cc23)NC(=O)[C@H](Cc2c[nH]c3ccccc23)NC(=O)[C@H](CC(=O)O)NC(=O)CCCC(=O)NC[C@H](O)[C@@H](O)[C@H](O)[C@H](O)CO)CSCc2cccc(n2)CSC[C@@H](C(=O)NC2CCN(CC(=O)N[C@H](CCC(=O)NC(CO)CO)C(=O)NC(CO)CO)CC2)NC1=O [GIP-372, AGLU-Glutar-Asp-Trp-5Clw-Tap-Glu-leu-[Cys(2Lut)-Apc(DOTA)-Leu-Ile-Cys]-APAc-GLUSEROL] ({NH(1-deoxy-D-glucityl)-Glutaryl}-DW[Trp(5-Cl)][Pro(4R-NH2)]E[dL]C[Api](DOTA)LIC[X1][dE](NHCH(CH2OH)2)-{NHCH(CH2OH)2}; linker 7-11 via Pyridine(2,6-diCH2)) | < 10 | A (t1/2 values>15 min) | < 1 |
| CC[C@H](C)[C@@H]1NC(=O)[C@H](CC(C)C)NC(=O)C2(CCN(C(=O)CN3CCN(CC(=O)O)CCN(CC(=O)O)CCN(CC(=O)O)CC3)CC2)NC(=O)[C@@H](NC(=O)[C@@H](CC(C)C)NC(=O)[C@H](CCC(=O)O)NC(=O)[C@@H]2C[C@@H](N)CN2C(=O)[C@H](Cc2c[nH]c3ccc(Cl)cc23)NC(=O)[C@H](Cc2c[nH]c3ccccc23)NC(=O)[C@H](CC(=O)O)NC(=O)CN(CC(=O)NC(CO)CO)CC(=O)NC(CO)CO)CSCc2cccc(n2)CSC[C@@H](C(=O)NC2CCN(CC(=O)N[C@H](CNC(=O)CN(CC(=O)NC(CO)CO)CC(=O)NC(CO)CO)C(N)=O)CC2)NC1=O [GIP-373, NTASEROL-Asp-Trp-5Clw-Tap-Glu-leu-[Cys(2Lut)-Apc(DOTA)-Leu-Ile-Cys]-APAc-dap(NTASEROL)-NH2] (X10-DW[Trp(5-Cl)][Pro(4R-NH2)]E[dL]C[Api](DOTA)LIC[X1][dDap](X10)-NH2; linker 7-11 via Pyridine(2,6-diCH2)) | < 10 | A (t1/2 values>15 min) | < 1 |
| CC[C@H](C)[C@@H]1NC(=O)[C@H](CC(C)C)NC(=O)C2(CCN(C(=O)CN3CCN(CC(=O)O)CCN(CC(=O)O)CCN(CC(=O)O)CC3)CC2)NC(=O)[C@@H](NC(=O)[C@@H](CC(C)C)NC(=O)[C@H](CCC(=O)O)NC(=O)[C@@H]2C[C@@H](N)CN2C(=O)[C@H](Cc2c[nH]c3ccc(Cl)cc23)NC(=O)[C@H](Cc2c[nH]c3ccccc23)NC(=O)[C@H](CC(=O)O)NC(=O)CN(CC(=O)NC(CO)CO)CC(=O)NC(CO)CO)CSCc2cccc(n2)CSC[C@@H](C(=O)NC2CCN(CC(=O)N[C@H](CCC(=O)NC(CO)CO)C(=O)NC(CO)CO)CC2)NC1=O [GIP-374, NTASEROL-Asp-Trp-5Clw-Tap-Glu-leu-[Cys(2Lut)-Apc(DOTA)-Leu-Ile-Cys]-APAc-GLUSEROL] (X10-DW[Trp(5-Cl)][Pro(4R-NH2)]E[dL]C[Api](DOTA)LIC[X1][dE](NHCH(CH2OH)2)-{NHCH(CH2OH)2}; linker 7-11 via Pyridine(2,6-diCH2)) | < 10 | A (t1/2 values>15 min) | < 1 |
| CC[C@H](C)[C@@H]1NC(=O)[C@H](CC(C)C)NC(=O)C2(CCOCC2)NC(=O)[C@@H](NC(=O)[C@@H](CC(C)C)NC(=O)[C@H](CCCCN)NC(=O)[C@@H]2C[C@@H](O)CN2C(=O)[C@H](Cc2c[nH]c3ccc(Cl)cc23)NC(=O)[C@H](Cc2c[nH]c3ccccc23)NC(=O)[C@H](CC(=O)O)NC(C)=O)CSCc2cccc(n2)CSC[C@@H](C(N)=O)NC1=O [GIP-375, Ac-Asp-Trp-5Clw-Hyp-Lys-leu-[Cys(2Lut)-Thp-Leu-Ile-Cys]-NH2] (Ac-DW[Trp(5-Cl)][Hyp]K[dL]C[Thp]LIC-NH2; linker 7-11 via Pyridine(2,6-diCH2)) | < 10 | A (t1/2 values>15 min) | 1 to 7.94 |
